# Target: human GPR40 receptor (Homo sapiens, UniProt O14842)
# Test: IP1 accumulation measurements using the IPOne assay system
# Assay type: cell-based
# Conditions: 1321N1 cells stably expressing human GPR40; stimulation 1 h at 37° C.
# Experimental: IP1 accumulation measurements using the IPOne assay system—1321N1 cells stably expressing human GPR40 receptor (Euroscreen, Belgium) are seeded 24 h before the assay in white 384-well plates in culture medium containing 10% FCS, 1% Na-Pyruvate and 400 μg/mL G418. IP1 is assayed according to the manufacturer's description (Cisbio Bioassays, France). In brief, the assay is started by substitution of the culture medium by stimulation buffer (Hepes 10 mM, CaCl2 1 mM, MgCl2 0.5 mM, KCl 4.2 mM, NaCl 146 mM, glucose 5.5 mM and LiCl 50 mM, pH 7.4). Cells are stimulated for 1 h at 37° C., 5% CO2 by addition of the compounds that are diluted in stimulation buffer containing LiCl. Assays are stopped by adding HTRF-conjugates (IP1-d2 and Anti-IP1 cryptate Tb) and lysis buffer, provided by the manufacturer. After an incubation time of 1 h at room temperature plates are measured using an EnVision™, Perkin Elmer. The obtained fluorescence ratios at 665/615 […] are then used to calculate the pEC50 values using Assay Explorer 3.3 Software (Accelrys, Inc.) by interpolation using an IP1 reference curve and subsequent sigmoidal curve fitting allowing for a variable hill slope.
# human GPR40 receptor, sequence (O14842 whole entry): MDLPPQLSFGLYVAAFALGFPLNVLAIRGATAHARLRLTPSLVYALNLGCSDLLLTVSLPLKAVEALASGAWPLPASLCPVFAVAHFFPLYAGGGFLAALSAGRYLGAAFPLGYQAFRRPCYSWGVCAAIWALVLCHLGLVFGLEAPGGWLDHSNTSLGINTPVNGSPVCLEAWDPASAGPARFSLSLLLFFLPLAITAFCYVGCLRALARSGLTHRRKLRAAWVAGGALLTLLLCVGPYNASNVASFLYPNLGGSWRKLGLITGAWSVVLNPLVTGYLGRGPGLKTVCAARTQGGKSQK
row,Compound,EC50
1,"N#Cc1ccccc1Oc1ccc(F)c2c1CC[C@H]2Oc1ccc2c(c1)OC[C@H]2CC(=O)O [Example 17, {(S)-6-[(R)-4-(2-Cyano-phenoxy)-7-fluoro-indan-1-yloxy]-2,3-dihydro-benzofuran-3-yl}-acetic acid]",0.004 µM
2,"N#Cc1cc(OC(F)(F)F)ccc1Oc1ccc(F)c2c1CC[C@H]2Oc1ccc2c(c1)OC[C@H]2CC(=O)O [Example 26, {(S)-6-[(R)-4-(2-Cyano-4-trifluoromethoxy-phenoxy)-7-fluoro-indan-1-yloxy]-2,3-dihydro-benzofuran-3-yl}-acetic acid]",0.03 µM
3,CN(C)c1ccc(Oc2ccc(F)c3c2CC[C@H]3Oc2ccc3c(c2)OC[C@H]3CC(=O)O)cn1 [Example 31],0.12 µM
4,"Cc1ccc(Oc2ccc(F)c3c2CC[C@H]3Oc2ccc3c(c2)OC[C@H]3CC(=O)O)c(C#N)c1 [Example 23, {(S)-6-[(R)-4-(2-Cyano-4-methyl-phenoxy)-7-fluoro-indan-1-yloxy]-2,3-dihydro-benzofuran-3-yl}-acetic acid]",0.007 µM
5,"O=C(O)C[C@@H]1COc2cc(O[C@@H]3CCc4c(Oc5ccc(OC(F)F)cn5)ccc(F)c43)ccc21 [Example 25, {(S)-6-[(R)-4-(5-Difluoromethoxy-pyrid-2-yloxy)-7-fluoro-indan-1-yloxy]-2,3-dihydro-benzofuran-3-yl}-acetic acid]",0.013 µM
6,"O=C(O)C[C@@H]1COc2cc(O[C@@H]3CCc4c(Oc5ccc(CO)c(F)c5)ccc(F)c43)ccc21 [Example 28, {(S)-6-[(R)-7-Fluoro-4-(3-fluoro-4-hydroxymethyl-phenoxy)-indan-1-yloxy]-2,3-dihydro-benzofuran-3-yl}-acetic acid]",0.008 µM

# Source: patent US8815864B2, “Indanyloxydihydrobenzofuranylacetic acids” (Boehringer Ingelheim International GmbH, priority 2012, dated 2014)
